Laboratory results from patent publication US11147801B2, “Methods of use for trisubstituted benzotriazole derivatives as dihydroorotate oxygenase inhibitors” (Aurigene Discovery Technologies Limited, priority 2017, dated 2021).

Experiments:
L1210 murine leukemia = settings: cited from earlier work
DHODH [1] = target: T1, DHODH (Homo sapiens (Human), UniProt Q02127); settings: cited from earlier work
Target sequence in this assay (Q02127 whole entry, species assumed): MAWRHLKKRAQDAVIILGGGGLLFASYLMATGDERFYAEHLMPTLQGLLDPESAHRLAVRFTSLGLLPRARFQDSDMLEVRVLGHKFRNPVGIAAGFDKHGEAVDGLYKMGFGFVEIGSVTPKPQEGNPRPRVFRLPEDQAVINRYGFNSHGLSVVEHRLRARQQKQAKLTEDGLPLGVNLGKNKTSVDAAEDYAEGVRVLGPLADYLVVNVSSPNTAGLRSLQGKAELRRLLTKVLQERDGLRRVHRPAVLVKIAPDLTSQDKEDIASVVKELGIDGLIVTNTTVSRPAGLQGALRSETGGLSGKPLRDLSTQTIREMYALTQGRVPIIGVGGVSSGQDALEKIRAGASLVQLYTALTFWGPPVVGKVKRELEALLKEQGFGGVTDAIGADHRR

DHODH [2] = target: T1, DHODH; assay: DHODH activity assay (coupled enzyme assay, DCIP reduction); type: biochemical; settings: read-out: DHODH inhibition activity, IC50 group
Experimental: The DHODH activity assay is a coupled enzyme assay in which oxidation of DHO and subsequent reduction of ubiquinone are stoichiometrically equivalent to the reduction of DCIP ([…]). The reduction of DCIP is accompanied by a loss of absorbance at 610 nm.
Buffer Preparation: 50 mM tris HCl, 150 mM KCl, and pH 8.0, 0.8% triton.
L-Dihydroorotic acid stock solution of 20 mM in buffer.
2, 6-Dichloroindophenol Sodium salt hydrate stock solution of 20 mM in buffer.
Decylubiquinone stock solution of 20 mM in buffer.
5 μL of Dimethyl sulfoxide or a compound of formula (I) in DMSO solution was added to the wells of a 96 well plate. Compounds of formula (I) were measured at 10 μM.
Protein along with buffer was added, so that the total volume including the DMSO was 87 μL. Compound and protein were incubated for half an hour at room temperature after mixing. 5 μL of 20 mM solution of L-Dihydroorotic acid, 5 μL of 2 mM solution of Decylubiquinone and 3 μL of 2 mM solution of 2, 6-Dichloroindophenol sodium salt hydrate were added to the above solution (total assay volume 100 μL). The mixture was stirred for 2 min and absorbance was recorded at every 10 min at 610 nanometers.
Percent inhibition is calculated as follows: […]
A 2 mM DMSO stock solution of the selected trisubstituted benzoimidazole and benzotriazole derivatives of formula (I) of the present invention to be examined was prepared. Subsequent ⅓rd dilutions were made.
5 μL of each stock of compound of formula (I) was used for each 100 μL assay. Therefore, 5 μL of the 2 mM stock provided 100 μL of 100 μM solution of compound of formula (I), when made up with buffer, protein and substrate. See also: Ulrich et al. (2001) Eur. J. Biochem.268, 1861-1868.
Target sequence in this assay (Q02127 whole entry): as the sequence (Q02127 whole entry, species assumed) above

Ramos cells = assay: Ramos proliferation assay (XTT); type: cell-based; settings: Homo sapiens, 72 hrs; for inhibition at 30 µM: read-out: Maximum % Inhibition at 30 μM; for IC50: XTT
Description: Cell proliferation assay is a sensitive method for quantification of viable cells in cytotoxicity or proliferation assay. The XTT (2,3-bis[2-Methoxy-4-nitro-5-sulfophenyl]-2 H-tetrazolium-5-carboxyanilide inner salt) system is a means of measuring the activity of living cells via mitochondrial dehydrogenases. Mitochondrial dehydrogenases of viable cells cleave the tetrazolium ring of XTT, yielding orange formazon crystals which are soluble in aqueous solutions. The XTT solution is potentiated by the addition of an electron coupling agent, phenazine methosulphate (PMS) to the reaction. The resulting orange colour is spectrophotometrically measured at 450 nm. An increase or decrease in cell numbers results in a concomitant change in the amount of formazon formed, indicating the degree of cytotoxicity caused by the test material.
Dissolve 17.7 g IMDM (Iscove's Modified Dulbecco's Medium) powder, 1.5 g sodium bicarbonate pH 7.2-7.4 in 1 L MiliQ water, add 1% Pencilin/ Streptomycin and 10% FBS.
Dissolve 10.6 g Ham's F12 powder, 1.5 g sodium bicarbonate pH 7.2-7.4 in 1 L MiliQ water, add 1% Penicillin/Streptomycin. DMSO used as vehicle.
Ramos cells were re-suspended to a density of 1×10^5 cells/ ml in complete IMDM medium. 95 μL of this cell suspension was added to the 96-well plate to seed ˜10,000 cells per well. The plates were incubated at 37° C. under a humidified atmosphere of 5% CO2 for ˜1 hour before compound addition.
Test compounds (Refer to Table 1) were dissolved in 100% DMSO to generate a 2/6/10/20 mM stock solution. A 200× concentration of the required final concentrations was prepared in DMSO. 10 μL of each concentration (200×) was then diluted in 90 μL of serum-free Ham's F12 medium to get an intermediate concentration of 20× in medium. The DMSO concentration in this step is 10% (Intermediate dilution). 5 μL of each intermediate dilution was then added in triplicates in the previously seeded 96-well plate. The final DMSO concentration was 0.5% in the experimental wells. Cells treated with 0.5% DMSO served as positive control. 100 μL, of complete IMDM medium served as media blank for data analysis. 200 μL, of 1× PBS was added in all corner wells of the assay plate. Plates were then incubated for 72 hrs in an incubator with 5% CO2 at 37° C.
On termination day, 100 μl of XTT solution (1 mg/ml XTT supplemented with 25 μM PMS in Ham's F12 medium) was added to each well. Plates were incubated for 2 hrs. The amount of formazon produced was determined by reading the absorbance of the plate using VICTOR X5 multilabel plate reader at wavelength of 450 nm. The IC50 values were determined as concentrations that reduced cell viability by 50% and the curve was plotted with GraphPad Prism 6.0.
Percent (%) Inhibition was calculated by normalizing DMSO control values to 100% using the formula: % Inhibition=[…](Abs450test compound−blank)/(Abs450positive control−blank)*100
Test compound contains cells, test compound, IMDM medium and 0.5% DMSO
Positive control contains cells, IMDM medium and 0.5% DMSO
Blank contains IMDM medium

IC50 (DHODH [2]) | IC50 (Ramos cells) | Compound | Anticancer activity (L1210 murine leukemia) | Fold greater inhibitor of DHODH than of protein tyrosine kinase (DHODH [1]) | inhibition at 30 µM (Ramos cells) | inhibition at 10 µM (Ramos cells; 10 μM, read-out: Maximum % Inhibition (at 10 μM))
 |  | Cc1c(-c2ccc(-c3ccccc3F)cc2)nc2ccc(F)cc2c1C(=O)O [Brequinar, 6-Fluoro-2-(2′-fluoro[1,1′-biphenyl]-4-yl)-3-methyl-4-quinolinecarboxylic acid] | exhibits an anticancer activity |  |  | 
 |  | C/C(O)=C(\C#N)C(=O)Nc1ccc(C(F)(F)F)cc1 [Teriflunomide] |  | 100-1,000 fold |  | 
101 to 1000 nM | 1600 nM | Cn1nc2cc(-c3c(F)c(F)c(-c4cccc(CN5CCCCC5)c4)c(F)c3F)cc(C(=O)O)c2n1 [Compound 38, 2-methyl-6-(2,3,5,6-tetrafluoro-3′-(piperidin-1-ylmethyl)-[1,1′-biphenyl]-4-yl)-2H-benzo[d][1,2,3]triazole-4-carboxylic acid] |  |  | 92% | 
< 100 nM | 154 nM | Cc1ccccc1-c1ccc(-c2cc(C(=O)O)c3nn(C)nc3c2)cc1 [Compound 8, 2-methyl-6-(2′-methyl-[1,1′-biphenyl]-4-yl)-2H-benzo[d][1,2,3]triazole-4-carboxylic acid] |  |  | 103% | 
101 to 1000 nM | 2820 nM | Cn1nnc2cc(-c3ccc(-c4ccccc4CN4CCOCC4)cc3)cc(C(=O)O)c21 [Compound 25, 1-methyl-5-(2′-(morpholinomethyl)-[1,1′-biphenyl]-4-yl)-1H-benzo[d][1,2,3]triazole-7-carboxylic acid] |  |  | 120% | 
> 1000 nM | 14600 nM | CC(=O)Nc1cccc(-c2ccc(-c3cc(C(=O)O)c4c(c3)nnn4C)cc2)c1 [Compound 32, 5-(3′-acetamido-[1,1′-biphenyl]-4-yl)-1-methyl-1H-benzo[d][1,2,3]triazole-7-carboxylic acid] |  |  | 74% | 
101 to 1000 nM |  | Cc1ccccc1-c1ccc(-c2cc(C(N)=O)c3nn(C)nc3c2)cc1 [Compound 11, 2-methyl-6-(2′-methyl-[1,1′-biphenyl]-4-yl)-2H-benzo[d][1,2,3]triazole-4-carboxamide] |  |  |  | 67%
< 100 nM | 1090 nM | Cc1ccccc1-c1ccc(-c2cc(C(N)=O)c3c(c2)nnn3C)cc1 [Compound 2, 1-methyl-5-(2′-methyl-[1,1′-biphenyl]-4-yl)-1H-benzo[d] [1,2,3]triazole-7-carboxamide] |  |  | 95% | 
> 1000 nM |  | Cn1nnc2cc(-c3ccc(-c4cccc(CN5CCCC5)c4)cc3)cc(C(=O)O)c21 [Compound 17, 1-methyl-5-(3′-(pyrrolidin-1-ylmethyl)-[1,1′-biphenyl]-4-yl)-1H-benzo[d][1,2,3]triazole-7-carboxylic acid] |  |  | 50% | 
> 1000 nM | 4260 nM | Cn1nc2cc(-c3ccc(-c4ccccc4CN4CCOCC4)cc3)cc(C(=O)O)c2n1 [Compound 26, 2-methyl-6-(2′-(morpholinomethyl)-[1,1′-biphenyl]-4-yl)-2H-benzo[d][1,2,3]triazole-4-carboxylic acid] |  |  | 133% | 
> 1000 nM |  | CN1CCN(Cc2ccccc2-c2ccc(-c3cc(C(=O)O)c4nn(C)nc4c3)cc2)CC1 [Compound 30, 2-methyl-6-(2′-((4-methylpiperazin-1-yl)methyl)-[1,1′-biphenyl]-4-yl)-2H-benzo[d][1,2,3]triazole-4-carboxylic acid] |  |  | 56% | 
